Laboratory results as given in patent US9777037B2, “Neurosteroid compounds” (BIONATURE E. A. LTD., priority 2007, dated 2017).

What was measured:
[1] = test system: Bcl-2 and Bcl-xL proteins; assay: Western blot of anti-apoptotic Bcl-2 and Bcl-xL proteins in serum-deprived PC12 cells; format: cell-based, rat; settings: 10 nM neurosteroid (FIG. 4)
Method: Neural-crest derived PC12 cells were cultured for 8 hours in the absence of serum, but supplemented with 10 nM of various neurosteroids. At the end of incubation cell lysates were subjected to electrophoresis through a 12% SDS-polyacrylamide gel. Then, proteins were transferred to nitrocellulose membranes, which were processed according to standard Western blotting procedures. To detect protein levels, membranes were incubated with the appropriate antibodies: Bcl-2, (Santa Cruz Biotechnology Inc., Santa Cruz, Calif., dilution 1:100) Bcl-xL (Cell Signalling Technology Inc., Beverly, Mass., dilution 1:100). A PC-based Image Analysis program was used to quantify the intensity of each band (Image Analysis, Inc., Ontario, Canada). To normalize for protein content, the blots were stripped and stained with anti-actin antibodies (Chemicon, Temecula, Calif., dilution 1:400); the concentration of each target protein was normalized versus actin.

[2] = test system: tyrosine hydroxylase mRNA; assay: Tyrosine hydroxylase (TH) RT-PCR in dopaminergic PC12 cells; format: cell-based, rat; settings: dopaminergic PC12 cells (FIG. 6C)
Method: Tyrosine Hydroxylase (TH) RT-PCR: Total RNA was extracted from dopaminergic PC12 cells using the Trizol Reagent (Invitrogen Life technologies, CA). One microgram of total RNA was reverse transcribed by the Thermo-Script RT-PCR System (Invitrogen) using random hexamers in a total volume of 20 μl. Two microliters of the RT product was used as a template, amplified by PCR using 2 mM MgCl2, one strength PCR buffer, 0.2 mM of sense and antisense primers, 0.2 mM dNTPs and 2.5 U AmpliTaq Gold DNA polymerase (Perkin Elmer ABD, Foster City, Calif.) in a final reaction volume of 50 μl. PCR was performed in a Perkin Elmer DNA Thermal Cycler. Primers for TH were 5′-[…]-3′ (sense), and 5-[…]-3 (antisense) and for G3PDH were, 5′-[…]-3′ (sense), and 5′-[…]-3′ (antisense). Oligonucleotides were synthesized by MWG-Biotech AG (Munich, Germany). After reverse transcription, the cDNA product was amplified by PCR, at 33 cycles. The cycle number (33) was chosen such that amplification of the products was in the linear range with respect to the amount of input cDNA. PCR for G3PDH was performed in parallel to assure good quality of RNA and cDNA preparations. Each cycle consisted of 60 s at 92° C. for denaturation, 120 s at 53° C. for annealing, and 180 s at 72° C. for extension (60 s at 98° C., 90 s at 55° C., and 150 s at 72° C. for G3PDH respectively). 10 μl of the amplified products (368 bp for TH and 983 bp for G3PDH) were separated on a 2% agarose gel and visualized by ethidium bromide staining.

Ishikawa cells [3] = assay: Ishikawa cell growth (MTT), estrogen agonism/antagonism; format: cell-based, human
From the text: Treatment of postmenopausal syndromes with 17β-estradiol (E2) is associated with a higher risk of developing breast and/or endometrial cancer (Arch Intern Med. 166, 1027 (2006)). E2 stimulation of the proliferation of cancer cells is driven by estrogen receptor alpha (ERα) (Mol. Endocrinol. 13, 969 (1999)). Since BNN-50, BNN-93 and BNN-124 may form two hydrogen bonds with an O—O distance of 10.9-12.5 Å and thus may fit the ERα binding cavity (Chem. Biol. 11, 397 (2004)), it was imperative to examine the estrogen agonism/antagonism properties of these neurosteroids using human adenocarcinoma cells from breast (MCF-7 cells) and uterus (Ishikawa cells) as reporters. […] Differences between control and neurosteroid-treated cells were assessed using one-way ANOVA. […]
To determine neurosteroid effects on the growth of MCF-7 human mammary (from ATCC) and Ishikawa endometrial adenocarcinoma cells (from ECACC), the cells were cultured at 37° C. in Dulbecco's Minimal Essential Medium (DMEM) supplemented with 10% Fetal Bovine Serum (FBS, from Biochrom) in 5% CO2 and subcultured using a trypsin 0.25%-EDTA 0.02% solution. Neurosteroid effects on the growth of the cells were assessed using MTT [3-(4,5-dimethylthiazol-2-yl)-2,5-diphenyltetrazolium bromide] and standard methodology (Chem. Biol. 11, 397 (2004)). […]

Ishikawa cells [4] = assay: Alkaline phosphatase activity of Ishikawa cells, estrogen agonism/antagonism; format: cell-based, human
From the text: Treatment of postmenopausal syndromes with 17β-estradiol (E2) is associated with a higher risk of developing breast and/or endometrial cancer (Arch Intern Med. 166, 1027 (2006)). E2 stimulation of the proliferation of cancer cells is driven by estrogen receptor alpha (ERα) (Mol. Endocrinol. 13, 969 (1999)). Since BNN-50, BNN-93 and BNN-124 may form two hydrogen bonds with an O—O distance of 10.9-12.5 Å and thus may fit the ERα binding cavity (Chem. Biol. 11, 397 (2004)), it was imperative to examine the estrogen agonism/antagonism properties of these neurosteroids using human adenocarcinoma cells from breast (MCF-7 cells) and uterus (Ishikawa cells) as reporters. Full estrogen agonism (E2 at ≧0.1 nM) and non-agonism (vehicle only) controls served to classify the neurosteroids as super, full, partial, weak and marginal agonists depending on whether their estrogenic efficacy was >100, 76-100, 26-75, 10-25 and 1-10% of that of E2 (set equal to 100). Similarly, full antagonism of the effect of E2 (at 0.1 nM) by ICI 182, 780 (at ≧10 nM) and non-antagonism (vehicle only) controls served to classify the neurosteroids as full, partial, weak and marginal antagonists depending on whether their suppression of the effect of E2 was 76-100, 26-75, 10-25 and 1-10% of that of ICI 182, 780. Differences between control and neurosteroid-treated cells were assessed using one-way ANOVA. […]

C[C@]12CC[C@H](O)CC1=CCC1C2CC[C@@]2(C)C1CC[C@@]21CO1 (stereo partly drawn) [BNN-50, 17β-spiro-[5-androsten-17,2′-oxiran]-3β-ol]
levels of anti-apoptotic Bcl-2 and Bcl-xL proteins [1]: preventing this effect | induction of tyrosine hydroxylase mRNA [2]: strong induction | E2 agonism (at 1 uM), Ishikawa cell growth (Ishikawa cells [3]): non-significant | E2 antagonism (at 1 uM), Ishikawa cell growth (Ishikawa cells [3]; against E2 at 0.1 nM): non-significant | E2 agonism (at 1 uM), Ishikawa AlkP (Ishikawa cells [4]): non-significant | E2 antagonism (at 1 uM), Ishikawa AlkP (Ishikawa cells [4]; against E2 at 0.1 nM): marginal (1-10% of that of ICI 182, 780)
